Marks after values point to notes of the source that are not given here.
Tests used:
SD Rat = assay: Oral glucose tolerance (OGTT) in rats; format: in vivo; details: male SD rats, single gavage dose, Canagliflozin 3 mg/kg, test compound 10 mg/kg
Experimental: The animals will be acclimatized in the animal room for 1 week after arrival at the facility.
The animals are fasted for 16 hours in the metabolic cage and given the drug or solvent (5 mL/kg) according to the table above, followed immediately by 50% glucose solution (2 g/kg, 4 mL/kg).
After 1 hour of glucose administration, the animals resumed feeding, and blood samples were collected at 0 min, 20 min, 40 min, 60 min, 90 min and 120 min for blood glucose measurement; urine at 0 to 24 hours was used for urinary glucose (mg/200 g) and urine volume test, respectively.
All values were expressed as mean values. Statistical analysis was performed using Graphpad Prism 6 single factor analysis of variance Tukey's multiple comparison test. The p-value less than 0.05 was considered statistically significant.

[1] = molecular target: recombinant human dipeptidyl peptidase 4 (rhDPP4) (Homo sapiens, UniProt P27487); assay: rhDPP4 inhibitor screening experiment; format: biochemical; details: Gly-Pro-aminofluorescein substrate, 1 hour at room temperature
Description: To evaluate the inhibitory activity of compounds against recombinant human dipeptidyl peptidase 4 (rhDPP4) by measuring the half-inhibitory concentration (IC50) values of the compounds. In the experiment, rhDPP4 was used to catalyze the generation of […] from substrate, the substrate was a luminescent precursor […], and the substrate and luciferase were reacted to generate a light signal, the intensity of the light signal was proportional to the enzyme activity.
• 1) The gradient diluted compounds (4-fold fold-dilution, 10 assay concentrations) were transferred 250 nL into a 384-well plate (PerkingElmer-6007299) using a non-contact nano-acoustic pipetting system (ECHO), and dimethyl sulfoxide (DMSO) concentration was 0.5% in the final reaction system. Blank control wells (containing DMSO, substrate and 10 mM Tris-HCl) and positive control wells (containing DMSO, substrate and rhDPP4) were set up. • 2) The pre-dispensed frozen buffer containing luciferase was removed and restored to room temperature, and then the substrate was added to configure a working solution with a substrate concentration of 20 μM. RhDPP4 was prepared as a working solution of 0.2 ng/mL using 10 mM Tris-HCl (pH 8.0) aqueous solution. • 3) 25 μL of working solution containing 20 μM substrate and 25 μL of working solution containing 0.2 ng/mL rhDPP4 were added to a 384-well plate with the addition of the compound, then the mixture was centrifuged for 30 s at 1000 rpm, the plate was sealed with aluminum foil sealing film and incubated for 1 hour at room temperature. • 4) The intensity of the light signal was detected by EnVision, a multifunctional microplate reader. The raw data were used to calculate the inhibition of rhDPP4 activity by the compound. % of inhibition activity=100−(compound well signal value−blank control well signal value)/(positive control well signal value−blank control well signal value)*100. • The percent of inhibition was imported into GraphPad Prism software for data processing to derive the corresponding dose-effect curves and to derive the IC50 values of the tested compounds.

Human-SGLT2 = molecular target: T1, Human-SGLT2 (Homo sapiens, UniProt P31639); assay: SGLT2 glucose transport assay ([14C]-labeled glucose uptake); format: cell-based; details: cells stably expressing Human-SGLT2, 37° C., 2 hours
T1 sequence (P31639 1-672): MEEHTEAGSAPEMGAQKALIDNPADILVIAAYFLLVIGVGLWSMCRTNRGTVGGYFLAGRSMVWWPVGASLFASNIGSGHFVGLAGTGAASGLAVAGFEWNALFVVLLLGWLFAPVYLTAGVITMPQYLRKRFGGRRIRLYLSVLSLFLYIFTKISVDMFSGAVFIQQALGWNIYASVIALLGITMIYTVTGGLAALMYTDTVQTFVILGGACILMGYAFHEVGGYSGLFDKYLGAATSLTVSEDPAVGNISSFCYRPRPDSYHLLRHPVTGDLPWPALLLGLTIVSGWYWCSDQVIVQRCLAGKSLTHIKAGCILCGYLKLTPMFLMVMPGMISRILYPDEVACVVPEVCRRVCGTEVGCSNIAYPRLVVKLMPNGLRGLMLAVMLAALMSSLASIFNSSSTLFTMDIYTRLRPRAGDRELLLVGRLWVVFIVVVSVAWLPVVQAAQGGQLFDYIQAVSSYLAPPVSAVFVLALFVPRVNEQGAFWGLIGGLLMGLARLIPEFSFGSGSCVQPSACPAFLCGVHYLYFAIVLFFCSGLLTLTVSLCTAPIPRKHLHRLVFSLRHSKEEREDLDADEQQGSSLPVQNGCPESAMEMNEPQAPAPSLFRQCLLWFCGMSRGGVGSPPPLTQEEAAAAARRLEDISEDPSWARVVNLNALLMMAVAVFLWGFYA
Experimental: To test the effect of compounds on the glucose transport activity of SGLT2 transporters by measuring the amount of [^14C]-labeled glucose entering highly expressed Human-SGLT2 cells.
The cells stably expressing Human-SGLT2 used for the experiments were constructed by WuXi AppTec Shanghai. SGLT2 cells were plated in 96-well cell culture plates (Greiner) and cultured overnight at 5% CO2, 37° C.
(§1) Experimental buffer: 10 mM 4-hydroxyethylpiperazine ethanesulfonic acid (HEPES), 1.2 mM magnesium chloride (MgCl2), 4.7 mM potassium chloride (KCl), 2.2 mM calcium chloride (CaCl2) and 120 mM sodium chloride (NaCl).
Termination buffer: 10 mM 4-hydroxyethylpiperazine ethanesulfonic acid (HEPES), 1.2 mM magnesium chloride (MgCl2), 4.7 mM potassium chloride (KCl), 2.2 mM calcium chloride (CaCl2), 120 mM sodium chloride (NaCl) and 1 μM LX4211.
The compounds were diluted with 100% dimethyl sulfoxide (DMSO) at a starting concentration of 10 μM, 8 points of 5-fold serial gradient dilution was made.
6 μM [^14C]-labeled methyl α-D-glucopyranoside was prepared with experimental buffer.
Cells were treated with 49 μL of experimental buffer, 1 μL of gradient-diluted compound, and 50 μL of 6 μM [^14C]-isotope-labeled glucose solution at 37° C. for 2 hours.
The liquid in the wells was aspirated and the cells were washed 3 times with termination buffer.
The cells were lysed with 50 μL of 10% sodium hydroxide solution, and the cell lysate was aspirated into a scintillation tube, and 2 mL of scintillation solution was added.
Readings were taken with an isotope detector (Tricarb).
The data were calculated by GraphPad Prism 5.0 software using the formula: log (inhibitor) vs. response—Variable slope to obtain the IC50 values of the tested compounds, and the experimental results are shown in Table 5.

Human-SGLT1 = molecular target: T2, Human-SGLT1 (Homo sapiens, UniProt P13866); assay: SGLT1 glucose transport assay ([14C]-labeled glucose uptake); format: cell-based; details: cells stably expressing Human-SGLT1, 37° C., 2 hours
T2 sequence (P13866 1-664): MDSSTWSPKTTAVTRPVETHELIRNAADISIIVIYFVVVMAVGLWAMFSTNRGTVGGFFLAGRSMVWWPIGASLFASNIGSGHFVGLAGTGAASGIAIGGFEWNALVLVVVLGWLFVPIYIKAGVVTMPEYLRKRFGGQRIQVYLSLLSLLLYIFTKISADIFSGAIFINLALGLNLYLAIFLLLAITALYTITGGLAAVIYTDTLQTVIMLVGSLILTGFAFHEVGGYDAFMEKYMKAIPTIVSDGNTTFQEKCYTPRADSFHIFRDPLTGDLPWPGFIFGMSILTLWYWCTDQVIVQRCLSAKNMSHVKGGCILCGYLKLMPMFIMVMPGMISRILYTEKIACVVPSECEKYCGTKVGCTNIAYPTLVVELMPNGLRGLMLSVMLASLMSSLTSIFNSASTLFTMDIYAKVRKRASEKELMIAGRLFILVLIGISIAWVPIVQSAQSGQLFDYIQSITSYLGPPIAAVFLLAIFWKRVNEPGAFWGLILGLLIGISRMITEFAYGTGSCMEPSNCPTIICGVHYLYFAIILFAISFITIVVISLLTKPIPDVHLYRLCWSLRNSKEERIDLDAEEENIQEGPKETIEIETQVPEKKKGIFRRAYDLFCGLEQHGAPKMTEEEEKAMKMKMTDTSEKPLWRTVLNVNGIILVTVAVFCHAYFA
Experimental: To test the effect of compounds on the glucose transport activity of SGLT1 transporters by measuring the amount of [^14C]-labeled glucose entering highly expressed Human-SGLT1 cells.
The cells stably expressing Human-SGLT1 used for the experiments were constructed by WuXi AppTec Shanghai. The SGLT1 cells were plated in Cytostar-T (PerkinElmer) 96-well cell culture plates and cultured overnight at 5% CO2, 37° C.
as §1
The compounds were diluted with 100% dimethyl sulfoxide (DMSO) at a starting concentration of 1 mM, 8 points of 5-fold serial gradient dilution was made.
3 μM [^14C]-labeled methyl α-D-glucopyranoside (Methyl a-D-glucopyranosid) was prepared with experimental buffer.
Cells were treated with 49 μL of experimental buffer, 1 μL of gradient-diluted compound and 50 μL of 3 μM [^14C]-isotope-labeled glucose solution at 37° C. for 2 hours.
Readings were taken with an isotope detector (Micro beta Reader).
The data were calculated by GraphPad Prism 5.0 software using the formula: log(inhibitor) vs. response—Variable slope to obtain the IC50 values of the tested compounds, and the experimental results are shown in Table 5.

Chain of recombinant human dipeptidyl peptidase 4 (rhDPP4) (P27487 whole entry): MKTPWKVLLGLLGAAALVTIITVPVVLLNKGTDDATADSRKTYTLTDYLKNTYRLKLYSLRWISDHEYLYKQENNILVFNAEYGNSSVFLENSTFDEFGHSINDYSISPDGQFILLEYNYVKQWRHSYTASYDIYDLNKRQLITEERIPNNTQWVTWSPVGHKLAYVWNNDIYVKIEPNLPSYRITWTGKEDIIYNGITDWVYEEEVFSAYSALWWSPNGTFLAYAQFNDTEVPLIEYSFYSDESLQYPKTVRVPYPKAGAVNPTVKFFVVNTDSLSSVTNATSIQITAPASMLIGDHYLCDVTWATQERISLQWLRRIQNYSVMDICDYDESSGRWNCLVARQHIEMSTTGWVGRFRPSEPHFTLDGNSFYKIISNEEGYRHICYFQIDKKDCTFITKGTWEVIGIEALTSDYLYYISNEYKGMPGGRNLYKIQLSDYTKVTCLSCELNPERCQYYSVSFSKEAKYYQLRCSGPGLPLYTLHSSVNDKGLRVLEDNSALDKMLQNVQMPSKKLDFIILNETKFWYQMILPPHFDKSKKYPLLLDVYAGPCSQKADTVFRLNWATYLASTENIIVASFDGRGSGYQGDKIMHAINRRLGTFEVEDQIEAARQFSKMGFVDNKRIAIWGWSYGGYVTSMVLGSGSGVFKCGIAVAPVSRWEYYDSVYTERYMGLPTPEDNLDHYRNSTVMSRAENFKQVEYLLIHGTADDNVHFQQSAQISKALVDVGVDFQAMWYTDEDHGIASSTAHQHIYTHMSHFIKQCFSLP

| SMILES | OGTT blood glucose levels AUC0-2hr (SD Rat; glucose 2 g/kg) [mmol/L/min] | Urinary glucose level (SD Rat; urine 0 to 24 hours) | Urine volume (SD Rat; urine 0 to 24 hours) | IC50 [1] [nM] | IC50 (Human-SGLT2) [nM] | IC50 (Human-SGLT1) [nM] |
| --- | --- | --- | --- | --- | --- | --- |
| Cc1ccc([C@@H]2O[C@H](CO)[C@@H](O)[C@H](O)[C@H]2O)cc1Cc1ccc(-c2ccc(F)cc2)s1 [Canagliflozin, reference compound] | 945 | 1317**** mg/200 gBW | 24.4*** mL/200 gBW | – | – | – |
| CS[C@H]1O[C@@H](c2cc(Cc3ccc(O[C@@H]4CCN([C@H]5CO[C@H](c6cc(F)ccc6F)[C@@H](N)C5)C4)cc3)c(Cl)cc2C)[C@H](O)[C@@H](O)[C@@H]1O [WX002] | – | – | – | 104 | 4.84 | 187 |
| CS[C@H]1O[C@@H](c2ccc(Cl)c(Cc3ccc(O[C@@H]4CCN([C@H]5CO[C@H](c6cc(F)ccc6F)[C@@H](N)C5)C4)cc3)c2C)[C@H](O)[C@@H](O)[C@@H]1O [WX003] | – | – | – | 112 | 332 | 980 |
| CS[C@H]1O[C@@H](c2cc(C)c(Cl)c(Cc3ccc(OC4CCN([C@H]5CO[C@H](c6cc(F)ccc6F)[C@@H](N)C5)C4)cc3)c2)[C@H](O)[C@@H](O)[C@@H]1O (some centres unmarked) [WX004] | – | – | – | 166 | 5.96 | 33.3 |
| CS[C@H]1O[C@@H](c2cccc(Cc3ccc(OC4CCN([C@H]5CO[C@H](c6cc(F)ccc6F)[C@@H](N)C5)C4)cc3)c2)[C@H](O)[C@@H](O)[C@@H]1O (some centres unmarked) [WX005] | – | – | – | 116 | 5.05 | 28.5 |
| COc1cc(F)c(Cc2ccc(O[C@@H]3CCN([C@H]4CO[C@H](c5cc(F)ccc5F)[C@@H](N)C4)C3)cc2)cc1[C@@H]1O[C@H](SC)[C@@H](O)[C@H](O)[C@H]1O [WX007] | – | – | – | 32.5 | 19.7 | 2070 |
| CS[C@H]1O[C@@H](c2cc(Cc3ccc(O[C@@H]4CCN([C@H]5CO[C@H](c6cc(F)ccc6F)[C@@H](N)C5)C4)cc3)c(F)cc2C)[C@H](O)[C@@H](O)[C@@H]1O [WX008] | – | – | – | – | 7.39 | 521 |

From US12421269B2, “SGLT2/DPP4 inhibitor and application thereof” (CGeneTech (Suzhou, China) CO., Ltd., priority 2019, dated 2025)
